Experimental findings from article PMC7734281, “Functionalized Oxoindolin Hydrazine Carbothioamide Derivatives as Highly Potent Inhibitors of Nucleoside Triphosphate Diphosphohydrolases” (Frontiers in Pharmacology, 2020) are described below.

Assay [1] deals with ectonucleotidase activity in islets homogenate. The experiment in a line: Ectonucleotidase activity of islet homogenate (malachite green, Pi release). The assay is classed as biochemical, mice. As to conditions: for Effect on ectonucleotidase activity in islets homogenate: compound 100 µM, 100 µM ATP as substrate, versus control. Here is the method: Islets were isolated and homogenized, according to the previously reported method ([Hedeskov and Capito, 1974]). After isolation, islets were washed thrice with HBSS and suspended in an ice-cold buffer containing sucrose (0.25 M), ethylenediaminetetraacetic acid (EDTA,1 mM) and tris-HCl (5 mM), maintained at pH 7.0. The resulting suspension was diluted with assay buffer, composed of tris-HCl (50 mM) and CaCl2 (5 mM). Afterward, these islets were sonicated for 30 s leading to disruption of islets and formation of a homogenate. Cellular debris was removed by centrifugation at 15,000 rpm for 10 min (4°C). The supernatant was collected and stored on ice. Protein concentration was estimated by Bradford method, using bovine serum albumin as reference standard ([Bradford, 1976]).
In order to determine the effect of compounds on ectonucleotidase activity in mice islets, standard curve based procedure was used where KH2PO4 was used as a standard. A stock solution of KH2PO4 (1 mM) was prepared in assay buffer that was used to prepare the working solutions of lower concentrations (0–100 µm). A standard curve was generated by incubating increasing concentration of KH2PO4 with buffer and malachite green reagent.
The assay was carried out in tris-buffer (pH 7.4) containing tris-HCl (50 mM) and CaCl2 (5 mM), as previously described ([Lavoie et al., 2010]). Compounds were dissolved in DMSO (10%) and tested at a concentration of 100 µM. The assay was started by adding 10 µl of test compound solution to 56 µl of assay buffer, followed by the addition of 6 µl of homogenate (i.e., 3 µg of protein). The mixture was incubated at 37°C for 10 min and then 10 µl of ATP (100 µM) was added to start the reaction. Reaction mixture was again placed in incubator at 37°C for 15 min and then reaction was stopped by adding 100 µl of trichloroacetic acid (10%). […] Finally, samples were mixed with malachite green reagent in an appropriate proportion and released Pi was determined by using standard curve. […] All the experiments were carried out in triplicate and enzyme activity was expressed as […] of Pi/min/mg of protein.

Assay [2] deals with mice pancreatic islets. Description: Glucose stimulated insulin secretion in isolated mice islets (ELISA). The assay is classed as cell-based, BALB/c mice. As to conditions: basal glucose 3 mM. A general note: An ELISA detects its analyte on a solid surface through an enzyme-linked reagent.
The test system of assay [3] is mice pancreatic islets. The description is as above. Format: cell-based, BALB/c mice. As to conditions: 16.7 mM glucose; for Effect on glucose stimulated insulin secretion: compound 200 µM, 1 h, 37°C. Here is the method:
Six to eight week old BALB/c mice, weighing 30–40 g, were used in the study. These mice were obtained from the animal house of COMSATS University Islamabad, Abbottabad Campus and placed under standard temperature (25 ± 2°C) and humidity (50–55%) conditions with an alternate 12-h light/dark cycle. All the experimental animals were provided with a continuous supply of food and water. The animals were handled according to internationally accepted guidelines of animal care and use. Moreover, this study was reviewed and approved by Research Ethics Committee, Department of Pharmacy, COMSATS University Islamabad, Abbottabad Campus. (Protocol number: PHM.Eth./CS-M01-020-1609)
The islets were isolated from mice pancreas as previously described, by a process involving collagenase digestion ([Hameed et al., 2018]). Briefly, mice were anesthetized with sodium thiopental (30 mg kg) and sacrificed by cervical dislocation to block the flow of blood. Immediately, mice were transferred to biological hood and their abdominal cavity was opened completely by making an incision on abdomen. In order to stop the bile flow toward duodenum, ampulla was located and clamped under dissection microscope. Then, distention of pancreas was carried out by injecting 3 ml of collagenase solution (1 mg/ml) through common bile duct. The distended pancreas was removed as a whole, transferred to a 50 ml tube and digested in collagenase solution at 37°C. After 15 min, digestion was stopped by placing the tube on ice and 20 ml of Hank’s Balanced Salt Solution (HBSS) was added to it. Thus the digested islets were washed with HBSS (two to three times) by centrifugation (1,000 rpm) for 1 min at 4°C. Finally, islets were purified by passing through a cell strainer (70 µm) and isolated manually (by hand picking) under stereomicroscope (Euromex, Arnhem, Netherlands). All the purification and isolation procedures were carried out in HBSS, containing no magnesium, calcium and phenol red.
Krebs-Ringer bicarbonate buffer (KRBB) was used as an incubation medium for islets and was composed of NaCl (118 mM), KCl (4.7 mM), CaCl2 (1.9 mM), MgSO4 (1.2 mM), NaHCO3 (25 mM), 4-(2-hydroxyethyl)-1-piperazineethanesulfonic acid (HEPES, 10 mM) and bovine serum albumin (0.1%). The pH of KRBB was maintained at 7.4. The isolated islets were size-matched and pre-incubated (3 islets/tube) for 45 min at 37°C in KRBB, supplemented with 3 mM glucose. Thereafter, incubation medium was replaced with fresh KRBB (containing 16.7 mM glucose) and islets were incubated for 60 min at 37°C with or without test substance(s). After incubation, supernatant was collected and stored at −40°C until further use. Finally, collected samples were properly diluted and insulin secretion was estimated with ultra-sensitive mouse insulin ELISA kit (Crystal Chem Inc., Downers Grove, United States) according to the manufacturer’s instructions. The absorbance was measured at 450 nm and insulin secretion was normalized for number of islets used. ([Hameed et al., 2018]).

The next assay deals with T1, h-NTPDase8 (Homo sapiens, UniProt Q5MY95).
T1 construct: made in house; host or cells: COS-7 cells, transient transfection; crude protein extract after sonication
T1 sequence (Q5MY95 1-495): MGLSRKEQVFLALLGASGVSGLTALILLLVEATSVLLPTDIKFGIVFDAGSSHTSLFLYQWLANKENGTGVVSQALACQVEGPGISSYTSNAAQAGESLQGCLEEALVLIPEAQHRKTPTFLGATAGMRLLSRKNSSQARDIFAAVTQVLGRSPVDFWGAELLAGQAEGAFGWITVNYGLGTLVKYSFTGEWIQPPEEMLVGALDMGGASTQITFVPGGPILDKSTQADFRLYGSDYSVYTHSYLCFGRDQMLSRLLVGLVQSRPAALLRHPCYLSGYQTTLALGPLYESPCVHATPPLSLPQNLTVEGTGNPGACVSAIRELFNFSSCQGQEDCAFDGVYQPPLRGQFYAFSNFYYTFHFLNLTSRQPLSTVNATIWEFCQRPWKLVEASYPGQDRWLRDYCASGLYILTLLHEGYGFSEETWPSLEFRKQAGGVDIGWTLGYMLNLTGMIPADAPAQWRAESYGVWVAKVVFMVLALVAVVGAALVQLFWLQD
The experiment in a line: h-NTPDase8 inhibition, malachite green assay. As to conditions: Lineweaver-Burk plot. Format: biochemical.

“Also recorded” adds a separate entry of the source.

As for `CCNC(=S)N/N=C1\C(=O)Nc2ccccc21` [8m, (Z)-N-ethyl-2-(2-oxoindolin-3-ylidene)hydrazine-1-carbothioamide], in assay [1], the “Effect on ectonucleotidase activity in islets homogenate” value is reported as “significantly decreased the ectonucleotidase activity; also recorded: significantly reduced the enzyme activity; also recorded: significant reduction in ectonucleotidase activity; also recorded: significantly reduced ectonucleotidase activity”. Further, in assay [1] (different concentrations, 100 µM ATP, Pi release), the “Dose response of ectonucleotidase activity in islet homogenate” value is recorded as “dose dependent decrease in enzyme activity”. The “Effect on insulin secretion at basal glucose level” value with mice pancreatic islets [2] is reported as “no effect on insulin secretion; also recorded: did not produce any significant effect”. Also, the “Dose-dependent effect on insulin secretion” value in the assay with mice pancreatic islets [3] (10–200 µM) is “dose dependent increase in insulin release; also recorded: dose dependent increase in insulin secretion”. Further, the “Effect on glucose stimulated insulin secretion” value in the assay with mice pancreatic islets [3] is listed as “potently stimulated insulin secretion; also recorded: significant increase in glucose stimulated insulin secretion”.
For `O=C1Nc2ccccc2/C1=N/NC(=S)Nc1ccc(Cl)cc1` [8c, (Z)-N-(4-chlorophenyl)-2-(2-oxoindolin-3-ylidene)hydrazine-1-carbothioamide], the “Mode of inhibition of h-NTPDase8” value on h-NTPDase8 is on record as “competitive”. The “Effect on glucose stimulated insulin secretion” value in the assay with mice pancreatic islets [3] is “no significant effect on insulin secretion; also recorded: did not show any significant effect on insulin secretion”.
As for `Cc1ccc(C(=O)Nc2ccc(S(=O)(=O)O)c3cc(S(=O)(=O)O)cc(S(=O)(=O)O)c23)cc1NC(=O)c1cccc(NC(=O)Nc2cccc(C(=O)Nc3cc(C(=O)Nc4ccc(S(=O)(=O)O)c5cc(S(=O)(=O)O)cc(S(=O)(=O)O)c45)ccc3C)c2)c1` [Suramin, reference compound], the “Effect on ectonucleotidase activity in islets homogenate” value in assay [1] was “significantly reduced the enzyme activity”. Moreover, the “Effect on glucose stimulated insulin secretion” value in the assay on mice pancreatic islets [3] is “Neither suramin nor isatin had any significant effect”.
